Experimental data from PMC9405973, “Altered Conformational Landscape upon Sensing Guanine Nucleotides in a Disease Mutant of Elongation Factor-like 1 (EFL1) GTPase” (Biomolecules, 2022).
Where a chain is given by its changes, count along the chain named. Names and notes keep the numbering of the source.

B1: Efl1 L910K (Saccharomyces cerevisiae S288C; L910K) (protein)
chain: MPRVESETYKRLQNDPSCIRNICIVAHVDHGKTSLSDSLLASNGIISQRLAGKIRFLDARPDEQLRGITMESSAISLYFRVLRKQEGSDEPLVSEHLVNLIDSPGHIDFSSEVSAASRLCDGAVVLVDVVEGVCSQTVTVLRQCWTEKLKPILVLNKIDRLITELQLTPQEAYIHLSKVIEQVNSVIGSFFANERQLDDLFWREQLEKNENAEYIEKDDSGIYFNPTDNNVIFASAIDGWGFNIGQLAKFYEQKLGAKRENLQKVLWGDFYMDPKTKKIINNKGLKGRSLKPLFTSLILENIWKIYQNIITSRDSEMVEKIAKTLNIKLLARDLRSKDDKQLLRTIMGQWLPVSTAVLLTVIEKLPSPLESQTDRLNTILVSESDTAAMDPRLLKAMKTCDKEGPVSAYVSKMLSIPREELPVESKRIASSDELMERSRKAREEALNAAKHAGMVENMAMMDLNDNSKNTSDLYKRAKDTVMTPEVGEQTKPKPSRNNDVFCVVSEPSSALDLEFEYEGEDDSDSQDNFGLDFVPTDIDPNDPLSSMFEYEEEDPLLESIKQISEDVNDEVDDIFDEKEECLVAFARIYSGTLRVGQEISVLGPKYDPKCPEEHIETAIITHLYLFMGKELVPLDVCPSGNIVGIRGLAGKVLKSGTLIEKGVQGVNLAGVNFHFTPIVRVAVEPANPVEMSKLVRGLKLLDQADPCVHTYVENTGEHILCTAGELHLERCLKDLTERFAGIEITHSEPAIPYRETFLSASDMNPPQNSQLGRGVHELLLSQYKITFRTFPLSGKVTDFLSQHQNSIKNILKTSTSSMDPVIESTGSSFLDKKSLLVAFEEVINQEEKSRELLSGFKVKLAGFGPSRVGCNILLSQDNLLGSLFEGTPAAFEYSDSIKNGFQLAVSEGPKANEPVQGMCVLVESVHKMSQDEIESIEDPRYQQHIVDLSGRLITSTRDAIHEAFLDWSPRIMWAIYSCDIQTSVDVLGKVYAVILQRHGKIISEEMKEGTPFFQIEAHVPVVEAFGLSEDIRKRTSGAAQPQLVFSGFECIDLDPFWVPTTEEELEELGDTADRENIARKHMNAIRRRKGLFIEEKVVENAEKQRTLKKN
notes: recombinantly expressed in S. cerevisiae; isolated GTPase
B2: Efl1 L910K • Sdo1: binary complex of mutant GTPase Efl1 L910K and effector Sdo1 (protein, UniProt P53893 1-1110; Q07953 1-250, looked up, variant L910K)
Ribosome assembly protein 1: B1 chain
Ribosome maturation protein …: MPINQPSGQIKLTNVSLVRLKKARKRFEVACYQNKVQDYRKGIEKDLDEVLQIHQVFMNVSKGLVANKEDLQKCFGTTNVDDVIEEIMHKGEIQLSEKERQLMLNKVNNEMLTIVSAKCINPVSKKRYPPTMIHKALQELKFSPVINKPAKLQALEAIKLLVSKQIIPIVRAKMKVKVAISEPSRQPELIEKISKLIASSPGESTKPELDPWTCTGLIDPVNYRDLMTLCDKKGTVQVLDMAVIDNTTHN
modifications: binary complex
B3: Efl1 WT • Sdo1: binary complex of wild-type Efl1 GTPase and effector Sdo1 (protein, UniProt P53893 1-1110; Q07953 1-250, looked up)
Ribosome assembly protein 1: B1 chain with K910L
Ribosome maturation protein …: B2 Ribosome maturation protein …
modifications: binary complex
B4: Efl1 R1086Q • Sdo1: binary complex of mutant GTPase Efl1 R1086Q and effector Sdo1 (protein, UniProt P53893 1-1110; Q07953 1-250, looked up, variant R1086Q)
Ribosome assembly protein 1: B1 chain with K910L, R1086Q
Ribosome maturation protein …: B2 Ribosome maturation protein …
modifications: binary complex

Legend:
Efl1 R1086Q•Sdo1 = biological target: T1, Efl1 R1086Q•Sdo1 (Saccharomyces cerevisiae, UniProt P53893, R1086Q); experiment: ITC: binding of guanine nucleotides to pre-formed complex Efl1 R1086Q•Sdo1
T1 construct: made in house; host or cells: Efl1: Saccharomyces cerevisiae; Sdo1: Escherichia coli C41
Procedure: (§1) All calorimetric measurements were carried out using MicroCal^TM iTC200 System (GE Healthcare, Northampton, MA, USA) in a temperature range of 25–35 °C. Experiments were performed in a buffer consisting of 50 mM Tris-HCl (pH 8.0), 150 mM NaCl, 100 µM DTT, and 5% glycerol. In the titrations with Mg^2+-bound nucleotides, both the ligand and protein solutions contained 5 mM MgCl2. In the case of titrations with Mg^2+-free nucleotide, both the ligand and protein solutions were supplemented with 2 mM EDTA to sequester any residual trace of metal ions in solution. Protein samples and ligands were prepared in the exact same buffer prior to each titration. Protein concentration in the cell comprised 30–50 µM GTPase, while the ligand concentration in the syringe was 2–3 mM for GTP, MgGTP, GDP, and MgGDP. To ensure measuring the interaction of the complex Efl1 R1086Q•Sdo1 with the nucleotide, an eight-fold concentration excess of Sdo1 was used compared with that of the enzyme. […] The titration schedule consisted of 15–20 consecutive injections of the ligand with 5 min intervals between injections and a stirring rate of 700 rpm. The dilution heat of the ligand was obtained by adding the ligand to a buffer solution under identical conditions and with the same injection schedule used for the protein sample. All samples were degassed for 10 min prior to the experiment.
(§2) The binding isotherms obtained for the isolated GTPase in the presence of Mg(II) were analysed using a ternary model in which the protein can bind to the free nucleotide (G(D)TP) or that bound to one magnesium ion (MgG(D)TP); additionally, GTP may also exist in the form of Mg2GTP, which is not recognised by the protein. The derivation of this coupled-equilibria model can be reviewed in [6, 31]. The binding constant (Kb), the enthalpy change (∆Hb), and the stoichiometry (n) were obtained with the non-linear routines implemented in Origin 5.0 (OriginLab, Co., Northampton, MA, USA) using a one-binding-site model as described in [32, 33]. The heterotropic cooperativity for the binding of guanine nucleotides and Sdo1 to Efl1 R1086Q were calculated as previously described in [6, 32]. The cooperative effects of Mg(II) on the binding of guanine nucleotides to Efl1 R1086Q alone and bound to Sdo1 were calculated as follows:κ = KE-MG/KE-G κ = KES-MG/KES-G Δh = ΔHE-MG − ΔHE-G Δh = ΔHES-MG − ΔHES-G where subscripts E-MG and E-G stand for the association of the metal-bound and metal-free guanine nucleotide with mutant Efl1, respectively. Corresponding expressions applied to the heterotropic cooperativity of the binding of nucleotides to the preformed complex, Efl1•Sdo1 (ES).
(§3) The impact of Sdo1 on the binding of Efl1 R1086Q to guanine nucleotides in the presence of magnesium ions is contained in KES-MG and ΔHES-MG relative to the KE-S and ΔHE-S values; analogous ratios report the effects in the absence of Mg(II):κ = KES-MG/KE-S κ = KES-G/KE-G Δh = ΔHES-MG − ΔHE-S Δh = ΔHES-G − ΔHE-G
(§4) The corresponding cooperative entropy change was calculated as:TΔs = Δh − Δg = Δh + RTlnκ
(§5) The detailed methodology and equations to compute the changes in the accessible surface area (∆ASA) of the GTPase upon binding to nucleotides and the ∆S energetic-based parameters are reported in [6]. Briefly, the water-accessible areas (ASAs) were computed using programme NACCESS, while the changes in accessible surface area (ΔASA) upon the formation of each GTPase–nucleotide complex were estimated considering the difference between the complex and the sum of the free interacting partners. The calculated polar (ΔASAp) and apolar (ΔASAap) area changes were subsequently used to estimate the free molecular partners. […]

Efl1 R1086Q = biological target: T2, Efl1 R1086Q (Saccharomyces cerevisiae, UniProt P53893, R1086Q); experiment: Isothermal titration calorimetry (ITC): binding of guanine nucleotides or Sdo1 to Efl1 R1086Q; conditions: for Nconfres (number of residues changing conformation, absolute value) / ΔCpb: +Mg^2+; for Nconfres (number of residues changing conformation, absolute value): 30 °C; for ΔCpb: guanine nucleotide, from ΔHb at 25–35 °C
T2 construct: made in house; host or cells: Saccharomyces cerevisiae
Procedure: as §1, §2, §3, §4, §5

Efl1 R1086Q P151L = biological target: T3, Efl1 R1086Q P151L (Saccharomyces cerevisiae, UniProt P53893, P151L/R1086Q); experiment: ITC: binding of GTP to double mutant Efl1 R1086Q P151L; conditions: +Mg^2+, from ΔHb at 25–35 °C
T3 construct: made in house; host or cells: Saccharomyces cerevisiae

wild-type Efl1 = conditions: guanine nucleotide, +Mg^2+; cited from earlier work
[1] = substrate: Nc1nc2c(ncn2[C@@H]2O[C@H](COP(=O)(O)OP(=O)(O)OP(=O)(O)O)[C@@H](O)[C@H]2O)c(=O)[nH]1; experiment: GTP hydrolysis by PNP-coupled Enzchek phosphate assay (MESG, 360 nm), pH 7.5, 5 mM MgCl2, 6 µM Efl1 alone, Michaelis-Menten fit.; assay type: biochemical; conditions: 25.0 °C
Procedure: (§6) Finally, we measured the enzyme kinetics of mutant Efl1 R1086Q as an isolated enzyme and bound to Sdo1 using an enzymatic coupled assay with a purine nucleoside phosphorylase (PNP) enzyme. This analysis was extended to another disease mutation (EFL1 M882K) also located in domain IV of the GTPase using the equivalent yeast variant, Efl1 L910K [17]. The Km and kcat kinetic parameters were calculated using non-linear regression assuming a Michaelis–Menten model (Supplementary Table S1). […] The catalytic constant for mutant R1086Q and the wild-type enzyme consisted of 0.67 min^−1, and it was 0.58 min^−1 for mutant Efl1 L910K. […] In line with the proposed role of Sdo1 as a guanine exchange factor of Efl1, previous results have shown that the interaction of wild-type Efl1 with Sdo1 impacted its Km for GTP, decreasing its value 2–3-fold. The Km values for the complexes formed between Sdo1 and Efl1 mutants decreased by half with respect to their cognate-free counterpart and differed from each other. […] The measured Km value comprises all the microscopic rate constants of the individual reactions occurring in the enzyme, which include the binding to the substrate and product and the corresponding conformational changes.
Hydrolysis of GTP was measured using the Enzchek Phosphate Assay kit (Molecular Probes) as described by Webb. […]
Reactions were initiated and the GTPase was added after 3 min. Time courses were followed by recording the change in absorbance at 360 nm in a Cary 60 UV -Vis spectrophotometer (Agilent Technologies). Background absorbance was recorded prior to the addition of the GTPase and subtracted from the sample signals. The slope of the measured time courses corresponded to the GTP hydrolysis rate. […] Data were analysed by nonlinear regression to the M ichaelis-Menten equation with the program Origin Version 5.0 (OriginLab, Co., Northampton, MA). […]
(§7) Maximum emission at 440 nm was replotted as a function of nucleotide concentration and analysed

[2] = Enzyme kinetics of GTP hydrolysis (PNP coupled assay, Michaelis–Menten); assay type: biochemical, Saccharomyces cerevisiae; conditions: enzyme in complex with Sdo1 (25 µM Sdo1)
Procedure: as §6
Hydrolysis of GTP was measured using the Enzchek Phosphate Assay kit (Molecular Probes) as described by Webb. Standard reactions consisted of 100 µL containing 6 µM of Efl1 R1086Q and Efl1 L910K, 0.3 mM MESG, 1.0 U purine nucleoside phosphorylase (PNP) and the indicated amounts of GTP. Measurements done in the presence of effector protein contained 25 µM of Sdo1.
The reaction buffer consisted of 50 mM HEPES -KOH pH 7.5, 150 mM NaCl, 5 mM MgCl2.
Reactions were initiated and the GTPase was added after 3 min. Time courses were followed by recording the change in absorbance at 360 nm in a Cary 60 UV -Vis spectrophotometer (Agilent Technologies). Background absorbance was recorded prior to the addition of the GTPase and subtracted from the sample signals. The slope of the measured time courses corresponded to the GTP hydrolysis rate. The concentration of releas ed phosphate was estimated using a molar absorption coefficient at 360 nm of 14,386 M -1 cm-1 previously described in [2]. Data were analysed by nonlinear regression to the M ichaelis-Menten equation with the program Origin Version 5.0 (OriginLab, Co., Northampton, MA). […]
M HEPES-KOH pH 7.4, 2.5 mM magnesium acetate, 50 mM sucrose, 2 mM DTT, 0.1 mM PMSF, 0.1 mM benzamidine, 8 mM putrescine, 1 mM spermidine. […]
Dilution at the end of each titration was no longer than 2.5% of the initial volume. Data were corrected for the background signal by subtracting the fluorescence of the same ligand concentration without the GTPase in the reaction mixture.
as §7

T2 sequence (P53893 whole entry R1086Q): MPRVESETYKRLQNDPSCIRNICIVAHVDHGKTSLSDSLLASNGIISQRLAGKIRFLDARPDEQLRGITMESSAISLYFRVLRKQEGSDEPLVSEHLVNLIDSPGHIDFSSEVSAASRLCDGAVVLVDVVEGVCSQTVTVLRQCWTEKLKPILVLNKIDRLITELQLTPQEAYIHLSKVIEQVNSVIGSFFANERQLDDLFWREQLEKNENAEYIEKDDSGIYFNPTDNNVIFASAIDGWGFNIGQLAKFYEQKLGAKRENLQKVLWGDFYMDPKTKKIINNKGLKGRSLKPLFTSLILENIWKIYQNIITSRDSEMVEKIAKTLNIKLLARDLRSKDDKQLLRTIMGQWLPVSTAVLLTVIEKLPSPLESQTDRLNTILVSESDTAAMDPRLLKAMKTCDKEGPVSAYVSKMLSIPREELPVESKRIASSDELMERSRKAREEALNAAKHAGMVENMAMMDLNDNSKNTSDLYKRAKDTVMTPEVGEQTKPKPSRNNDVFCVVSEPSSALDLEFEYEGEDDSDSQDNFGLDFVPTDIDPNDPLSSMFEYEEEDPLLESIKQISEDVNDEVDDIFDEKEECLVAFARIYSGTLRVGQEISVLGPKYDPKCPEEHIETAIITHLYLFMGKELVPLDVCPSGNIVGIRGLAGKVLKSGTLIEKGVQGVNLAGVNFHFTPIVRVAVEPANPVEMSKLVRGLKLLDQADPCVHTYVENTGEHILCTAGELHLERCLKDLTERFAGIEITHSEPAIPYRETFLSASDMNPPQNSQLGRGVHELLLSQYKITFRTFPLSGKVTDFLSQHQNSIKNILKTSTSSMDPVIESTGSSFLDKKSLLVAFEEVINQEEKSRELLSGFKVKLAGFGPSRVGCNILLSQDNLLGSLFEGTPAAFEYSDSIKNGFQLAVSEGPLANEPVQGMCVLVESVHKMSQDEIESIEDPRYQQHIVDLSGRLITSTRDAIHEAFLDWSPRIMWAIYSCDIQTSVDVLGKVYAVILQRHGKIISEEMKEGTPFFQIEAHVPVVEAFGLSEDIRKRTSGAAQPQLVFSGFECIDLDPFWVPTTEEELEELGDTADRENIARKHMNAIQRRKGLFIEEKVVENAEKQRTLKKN
T1 sequence (P53893 whole entry R1086Q, one chain of several): as the sequence (P53893 whole entry R1086Q) above
T3 sequence (P53893 whole entry P151L/R1086Q): as the sequence (P53893 whole entry R1086Q) above, with P151L counted along it

Molecule	ΔΔCpb (Efl1 R1086Q•Sdo1 vs isolated enzyme) (Efl1 R1086Q•Sdo1; presence of magnesium ions) [cal mol^−1 K^−1]	Nconfres (number of residues changing conformation, absolute value) (Efl1 R1086Q)	ΔCpb (Efl1 R1086Q) [cal mol^−1 K^−1]	kcat [2] [s⁻¹]	also measured
MgGDP	−45	21	−270		increase in binding enthalpy as temperature increased (Efl1 R1086Q; 25 °C to 35 °C): ~ 3 kcal mol^−1; surface buried by the conformational change (Efl1 R1086Q; refers to Table 3, 30 °C): ~ 1000 Å
MgGTP	−410	3	10		ΔCpb (Efl1 R1086Q P151L): −220 cal mol^−1 K^−1; Nconfres (number of residues changing conformation, absolute value) (Efl1 R1086Q•Sdo1; +Mg^2+, 30 °C): 36; ΔCpb (Efl1 R1086Q•Sdo1; +Mg^2+, from ΔHb at 25–35 °C): −400 cal mol^−1 K^−1; additional residues modified with respect to the isolated enzyme (Efl1 R1086Q•Sdo1; presence of magnesium ions): 40; ΔCpb (wild-type Efl1): −560 cal mol^−1 K^−1; fold increase in affinity from 25 °C to 35 °C (Efl1 R1086Q; 35 °C vs 25 °C): 1.2 fold
B1					Km [1]: 185 µM
B2				0.0125	
B3				0.0107	
B4				0.0112	
